Experimental findings from ChEMBL document CHEMBL3301562, “MMV Box screening against Plasmodium falciparum protein kinases and aminoacyl tRNA synthetases” are described below.

Common to all, as to type: functional
Test [1] addresses T1, Cdk-related protein kinase 6 (Plasmodium falciparum, UniProt O77239).
T1 sequence (O77239 whole entry): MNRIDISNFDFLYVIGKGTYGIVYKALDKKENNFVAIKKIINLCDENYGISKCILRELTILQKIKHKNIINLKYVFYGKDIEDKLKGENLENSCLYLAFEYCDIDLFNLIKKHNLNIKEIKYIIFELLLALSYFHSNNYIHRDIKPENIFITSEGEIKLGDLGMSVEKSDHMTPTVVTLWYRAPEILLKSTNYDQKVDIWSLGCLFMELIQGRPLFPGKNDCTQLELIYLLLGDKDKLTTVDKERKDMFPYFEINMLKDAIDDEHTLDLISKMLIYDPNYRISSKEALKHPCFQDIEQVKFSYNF
The experiment in a line: Final concentrations were 1.5 uM ATP, 5 mM MnCl2, and 15 ug/ml PK6 in a buffer of 100 mM Tris-HCl (pH 7.5). 50 ug/mL MBP was provided as the substrate; 10 uM staurosporine was used as a control inhibitor. Incubation time was 3 hours and 40 minutes.The catalytic activity of each kinase was considered proportional to ATP consumed, as determined from measurements of residual [ATP] with the luciferase-based reagent Kinase-Glo (Promega) following incubation. Luminescence (proportional to residual [ATP]) was measured on the plate readers FLx800 (BioTek Instruments, Winooski, VT, USA) and MicroBeta2. (Kinase-Glo measures the ATP left after a reaction by luminescence.)

For test [2], the target named is T2, Putative uncharacterized protein pk7 (Plasmodium falciparum, UniProt O96214).
T2 sequence (O96214 whole entry): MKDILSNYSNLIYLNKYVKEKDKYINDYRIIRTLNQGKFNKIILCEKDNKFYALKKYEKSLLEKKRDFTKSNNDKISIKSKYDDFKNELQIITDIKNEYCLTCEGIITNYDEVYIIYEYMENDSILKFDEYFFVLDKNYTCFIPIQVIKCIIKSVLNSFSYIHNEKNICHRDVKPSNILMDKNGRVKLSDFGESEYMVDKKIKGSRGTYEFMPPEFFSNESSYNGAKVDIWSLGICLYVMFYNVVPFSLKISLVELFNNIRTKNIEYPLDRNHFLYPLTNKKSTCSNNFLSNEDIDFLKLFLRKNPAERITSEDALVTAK
The experiment in a line: Final concentrations were 1 uM ATP, 2 mM DTT, 20 mM MgCl2, 2 mM MnCl2, 0.01% BSA, and 6 ug/ml PK7, in a buffer of 20 mM Tris-HCl (pH 7.5). The enzyme itself was the only substrate present (since autophosphorylation occurs); 100 uM 1NA-PP1 was used as a control inhibitor. Incubation time was 3 hours.

For test [3], the target named is T3, Mitogen-activated protein kinase (Plasmodium falciparum, UniProt Q25917).
T3 sequence (Q25917 whole entry): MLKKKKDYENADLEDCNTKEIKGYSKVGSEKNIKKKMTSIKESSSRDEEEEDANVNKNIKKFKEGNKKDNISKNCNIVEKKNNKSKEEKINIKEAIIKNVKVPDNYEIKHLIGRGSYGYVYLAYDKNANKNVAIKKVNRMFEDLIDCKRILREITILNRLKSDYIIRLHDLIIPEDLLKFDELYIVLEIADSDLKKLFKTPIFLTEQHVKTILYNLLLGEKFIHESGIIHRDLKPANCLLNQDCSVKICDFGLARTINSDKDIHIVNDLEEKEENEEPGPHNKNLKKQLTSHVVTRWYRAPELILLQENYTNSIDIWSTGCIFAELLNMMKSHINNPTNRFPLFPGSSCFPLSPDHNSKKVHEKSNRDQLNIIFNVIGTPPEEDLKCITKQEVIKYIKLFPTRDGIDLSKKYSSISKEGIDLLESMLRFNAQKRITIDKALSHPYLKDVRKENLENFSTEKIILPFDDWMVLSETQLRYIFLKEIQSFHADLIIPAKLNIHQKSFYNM
In words: Final concentrations were 1 uM ATP, 0.5 mM DTT, 1 mM MgCl2, 0.5 mg/mL BSA, and 10 ug/ml MAP2 in a buffer of 50 mM HEPES (pH 7.0). 0.5 mg/mL histone III-S served as the substrate (13); 100 uM AMP-PNP, an ATP analog, was used as a control inhibitor. Incubation time was 4 hours.

The target in test [4] is Calcium-dependent protein kinase 1 (Plasmodium falciparum, UniProt P62344). In words: MMV: CDPK1 Protein kinase inhibition assay using recombinant PfCDPK1, syntide 2 peptide substrate, ATP and KinaseGlo to measure % inhibition at 1 uM MMV box compound.
Test [5] deals with T4, Calcium-dependent protein kinase 4 (Plasmodium falciparum (isolate 3D7), UniProt Q8IBS5).
T4 sequence (Q8IBS5 whole entry): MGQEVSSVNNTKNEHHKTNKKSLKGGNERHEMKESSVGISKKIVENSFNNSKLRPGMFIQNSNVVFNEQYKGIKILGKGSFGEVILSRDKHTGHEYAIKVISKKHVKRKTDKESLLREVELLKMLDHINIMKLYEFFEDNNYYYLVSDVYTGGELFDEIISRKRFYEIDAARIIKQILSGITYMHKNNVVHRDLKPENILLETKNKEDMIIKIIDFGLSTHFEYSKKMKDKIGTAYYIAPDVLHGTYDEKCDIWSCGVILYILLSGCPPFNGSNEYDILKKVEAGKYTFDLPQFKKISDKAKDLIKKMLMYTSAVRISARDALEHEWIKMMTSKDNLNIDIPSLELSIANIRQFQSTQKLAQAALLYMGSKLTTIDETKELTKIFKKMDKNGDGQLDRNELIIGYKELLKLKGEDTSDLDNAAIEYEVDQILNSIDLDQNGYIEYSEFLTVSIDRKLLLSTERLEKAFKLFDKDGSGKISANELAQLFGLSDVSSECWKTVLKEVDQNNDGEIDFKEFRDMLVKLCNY
The experiment in a line: MMV: CDPK4 Protein kinase inhibition assay using recombinant PfCDPK4, syntide2 peptide substrate, ATP and KinaseGlo to measure % inhibition at 1 uM MMV box compound.

In a further test the target is T5, Proline--tRNA ligase (Plasmodium falciparum (isolate 3D7), UniProt Q8I5R7).
T5 sequence (Q8I5R7 whole entry): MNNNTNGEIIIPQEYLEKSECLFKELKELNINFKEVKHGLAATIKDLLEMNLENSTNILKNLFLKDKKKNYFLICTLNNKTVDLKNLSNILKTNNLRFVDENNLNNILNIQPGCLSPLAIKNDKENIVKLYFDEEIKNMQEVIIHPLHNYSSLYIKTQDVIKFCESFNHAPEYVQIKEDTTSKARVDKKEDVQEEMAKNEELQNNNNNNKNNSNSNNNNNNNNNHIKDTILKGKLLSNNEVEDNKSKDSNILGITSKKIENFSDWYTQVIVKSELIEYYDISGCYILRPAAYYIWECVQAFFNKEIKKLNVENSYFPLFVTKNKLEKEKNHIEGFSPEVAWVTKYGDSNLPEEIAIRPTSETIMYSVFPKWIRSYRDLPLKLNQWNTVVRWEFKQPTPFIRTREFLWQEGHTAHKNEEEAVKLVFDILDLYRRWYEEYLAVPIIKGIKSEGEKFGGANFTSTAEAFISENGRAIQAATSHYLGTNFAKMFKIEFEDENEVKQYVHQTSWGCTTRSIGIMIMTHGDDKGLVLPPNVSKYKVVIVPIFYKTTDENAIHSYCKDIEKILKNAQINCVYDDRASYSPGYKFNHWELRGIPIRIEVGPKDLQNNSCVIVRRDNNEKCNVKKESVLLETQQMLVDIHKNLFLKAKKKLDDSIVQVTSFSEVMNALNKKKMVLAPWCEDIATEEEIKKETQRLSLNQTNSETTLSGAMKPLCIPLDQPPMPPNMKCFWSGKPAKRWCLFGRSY
The experiment in a line: MMV: ProRS recombinant Plasmodium falciparum Prolyl-tRNA-synthetase, assay with yeast tRNA, ATP, and proline and 3 uM MMV malaria box compound, assay read out with kinase glo as % inhibition.

The next test has as its target Lysine--tRNA ligase (Plasmodium falciparum (isolate 3D7), UniProt Q8IDJ8). The experiment in a line: MMV: KRS recombinant Plasmodium falciparum Lysyl-tRNA-synthetase, assay with yeast tRNA, ATP, and lysine and 3 uM MMV malaria box compound, assay read out with kinase glo as % inhibition.

Chain of Lysine--tRNA ligase (Q8IDJ8 whole entry): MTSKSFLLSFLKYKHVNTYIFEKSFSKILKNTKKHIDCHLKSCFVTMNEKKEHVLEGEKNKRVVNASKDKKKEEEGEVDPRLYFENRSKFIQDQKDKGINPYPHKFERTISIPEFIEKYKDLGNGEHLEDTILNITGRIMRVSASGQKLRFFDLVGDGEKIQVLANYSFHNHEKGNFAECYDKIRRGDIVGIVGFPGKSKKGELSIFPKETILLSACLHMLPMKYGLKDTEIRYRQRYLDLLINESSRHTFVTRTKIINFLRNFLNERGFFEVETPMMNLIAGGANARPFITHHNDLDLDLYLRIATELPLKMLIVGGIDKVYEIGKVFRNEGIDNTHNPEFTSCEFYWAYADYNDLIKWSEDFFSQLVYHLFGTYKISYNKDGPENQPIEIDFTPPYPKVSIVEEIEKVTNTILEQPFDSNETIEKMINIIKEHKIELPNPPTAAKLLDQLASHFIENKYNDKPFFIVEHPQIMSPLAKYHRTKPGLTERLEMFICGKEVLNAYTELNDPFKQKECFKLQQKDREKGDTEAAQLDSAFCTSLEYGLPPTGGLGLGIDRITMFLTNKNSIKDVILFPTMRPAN
Chain of Calcium-dependent protein kinase 1 (P62344 whole entry): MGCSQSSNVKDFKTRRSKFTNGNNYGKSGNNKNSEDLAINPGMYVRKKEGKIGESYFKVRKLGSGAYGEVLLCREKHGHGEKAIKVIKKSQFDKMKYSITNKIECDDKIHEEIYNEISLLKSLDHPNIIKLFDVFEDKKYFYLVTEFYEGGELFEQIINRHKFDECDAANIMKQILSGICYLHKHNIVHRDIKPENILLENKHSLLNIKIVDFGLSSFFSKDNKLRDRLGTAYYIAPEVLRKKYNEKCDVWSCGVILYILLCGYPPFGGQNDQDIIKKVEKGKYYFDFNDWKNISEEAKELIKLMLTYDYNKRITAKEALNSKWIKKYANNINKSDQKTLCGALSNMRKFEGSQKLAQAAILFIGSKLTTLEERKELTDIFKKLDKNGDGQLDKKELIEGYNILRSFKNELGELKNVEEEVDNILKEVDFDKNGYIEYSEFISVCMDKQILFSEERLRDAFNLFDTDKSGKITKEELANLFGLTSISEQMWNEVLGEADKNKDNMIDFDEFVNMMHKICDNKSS

Usually IC50 stands for the concentration at which inhibition is half-maximal. As for `Cc1sc(NC(=O)c2ccco2)c(C(c2cccnc2)N2CCC(Cc3ccccc3)CC2)c1C` (stereo not drawn), the half-maximal inhibitory concentration (IC50) in test [1] was above 1000 nM; in test [2] it was above 1000 nM; in test [3], above 1000 nM; in test [4], above 1000 nM; in test [5], above 1000 nM; on Proline--tRNA ligase, above 2500 nM. Besides, on Lysine--tRNA ligase, the IC50 is above 2500 nM.
Take `OC1=C2C(=Nc3ccccc3SC2c2ccccc2)c2ccccc21` (stereo not drawn): the IC50 in test [1] is above 1000 nM; in test [2], above 1000 nM; in test [3], above 1000 nM; in test [4], above 1000 nM; in test [5], above 1000 nM; on Proline--tRNA ligase it was above 2500 nM. Moreover, the 50% inhibitory concentration (IC50) at Lysine--tRNA ligase is above 2500 nM.
Turning to `COc1cc(C(=O)Nc2ccc(-c3nc4ccccc4[nH]3)cc2)cc(OC)c1OC`, the IC50 in test [1] was above 1000 nM; in test [2] it was above 1000 nM; in test [3] it was above 1000 nM; in test [4], above 1000 nM; in test [5] it was above 1000 nM; at Proline--tRNA ligase, above 2500 nM. The IC50 at Lysine--tRNA ligase was above 2500 nM.
For the compound `COC(=O)c1ccc(C2C3=C(O)CC(c4ccc(F)cc4)CC3=Nc3ccccc3N2C(=O)c2ccccc2)cc1` (stereo not drawn), the IC50 in test [1] is above 1000 nM; in test [2] it was above 1000 nM; in test [3], above 1000 nM; in test [4], above 1000 nM; in test [5], above 1000 nM; on Proline--tRNA ligase, above 2500 nM. Further, at Lysine--tRNA ligase, the IC50 is above 2500 nM.
As to `CCCCNc1nc(NC(C)(C)C)nc(NC(C)(C)C)n1`, the IC50 in test [1] was above 1000 nM; in test [2] it was above 1000 nM; in test [3] it was above 1000 nM; in test [4] it was above 1000 nM; in test [5], above 1000 nM; at Proline--tRNA ligase, above 2500 nM. In addition, the concentration for half-maximal inhibition (IC50) at Lysine--tRNA ligase is above 2500 nM.
`CC(=O)c1sc(NC(=O)Nc2ccc(C)cc2C)nc1C`: the half-inhibitory concentration (IC50) in test [1] was above 1000 nM; in test [2] it was above 1000 nM; in test [3], above 1000 nM; in test [4] it was above 1000 nM; in test [5] it was above 1000 nM; on Proline--tRNA ligase, above 2500 nM. The concentration for half-maximal inhibition (IC50) on Lysine--tRNA ligase is above 2500 nM.
With `O=C(Nc1ccc(-c2nc3ccccc3[nH]2)cc1)c1ccc(Cl)c(Cl)c1`, the half-maximal inhibitory concentration (IC50) in test [1] was above 1000 nM; in test [2] it was above 1000 nM; in test [3] it was above 1000 nM; in test [4] it was above 1000 nM; in test [5] it was above 1000 nM; at Proline--tRNA ligase, above 2500 nM. The concentration for half-maximal inhibition (IC50) on Lysine--tRNA ligase is above 2500 nM.
On to `Cc1cc(N(C)C)nc(Nc2ccc(NC(=O)Nc3ccccc3)cc2)n1`, for which the 50% inhibitory concentration (IC50) in test [1] was above 1000 nM; in test [2], above 1000 nM; in test [3], above 1000 nM; in test [4], above 1000 nM; in test [5] it was above 1000 nM; at Proline--tRNA ligase, above 2500 nM. The IC50 on Lysine--tRNA ligase is above 2500 nM.
In the case of `COc1cc(C(=O)ON=C(N)Cc2cccc3ccccc23)cc(OC)c1OC`, the concentration for half-maximal inhibition (IC50) is above 1000 nM in test [1]; above 1000 nM in test [2]; above 1000 nM in test [3]; above 1000 nM in test [4]; above 1000 nM in test [5]; above 2500 nM at Proline--tRNA ligase. Also, at Lysine--tRNA ligase, the IC50 was above 2500 nM.
`Oc1c(C(Nc2ccccn2)c2cccc(Oc3ccccc3)c2)ccc2cccnc12` (stereo not drawn): the IC50 was above 1000 nM in test [1]; above 1000 nM in test [2]; above 1000 nM in test [3]; above 1000 nM in test [4]; above 1000 nM in test [5]; above 2500 nM on Proline--tRNA ligase. Moreover, the IC50 at Lysine--tRNA ligase was above 2500 nM.
As for `Cc1ccc(Nc2nc(N)c3ccccc3n2)cc1Cl`, the IC50 is above 1000 nM in test [1]; above 1000 nM in test [2]; above 1000 nM in test [3]; above 1000 nM in test [4]; above 1000 nM in test [5]; above 2500 nM on Proline--tRNA ligase. Also, on Lysine--tRNA ligase, the IC50 was above 2500 nM.
On to `CCn1c2c(c(=N)c3c1CCC3)CCCC2`, for which the IC50 was above 1000 nM in test [1]; above 1000 nM in test [2]; above 1000 nM in test [3]; above 1000 nM in test [4]; above 1000 nM in test [5]; above 2500 nM at Proline--tRNA ligase. On Lysine--tRNA ligase, the IC50 is above 2500 nM.
Turning to `Cc1ccc2c(C)nc(Nc3nc(C)cc(-c4ccccc4)n3)nc2c1`, the IC50 in test [1] was above 1000 nM; in test [2], above 1000 nM; in test [3], above 1000 nM; in test [4] it was above 1000 nM; in test [5] it was above 1000 nM; at Proline--tRNA ligase, above 2500 nM. On Lysine--tRNA ligase, the IC50 was above 2500 nM.
For `CCOc1ccc(Nc2ccnc3cc(Cl)ccc23)cc1`, the IC50 in test [1] is above 1000 nM; in test [2] it was above 1000 nM; in test [3], above 1000 nM; in test [4] it was above 1000 nM; in test [5], above 1000 nM; at Proline--tRNA ligase, above 2500 nM. Moreover, the 50% inhibitory concentration (IC50) on Lysine--tRNA ligase was above 2500 nM.
